Key:
Assay type in all cases: in vivo
[1] = test system: giant foxtail (Setaria faberii); test: Test A postemergence; settings: Setaria faberi, post-emergence, 240 h, 125 g ai/ha, postemergence, visual injury rating after approximately 10 d; read-out: Foxtail, Giant plant response rating (0 to 100 scale, 0 no effect, 100 complete control)
Method in brief: (§1)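 Visual injury, scored on a 0–100 scale relative to untreated controls, was recorded about 10 d after application. Treatments were a preemergence soil spray over planted seeds or a postemergence spray on plants at the one- to two-leaf stage, 2 to 10 cm tall, all in loam soil–sand blend in the greenhouse.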

Kochia (Kochia scoparia) [2] = test: Test A postemergence; settings: Bassia scoparia, post-emergence, 240 h, 125 g ai/ha, postemergence, visual injury rating after approximately 10 d; read-out: Kochia plant response rating (0 to 100 scale, 0 no effect, 100 complete control)
Method in brief: as §1

[3] = test system: Galium (catchweed bedstraw, Galium aparine); test: Test A postemergence; settings: Galium, post-emergence, 240 h, 125 g ai/ha, postemergence, visual injury rating after approximately 10 d; read-out: Galium plant response rating (0 to 100 scale, 0 no effect, 100 complete control)
Method in brief: as §1

[4] = test system: ryegrass, Italian (Italian ryegrass, Lolium multiflorum); test: Test A postemergence; settings: Lolium multiflorum, post-emergence, 240 h, 125 g ai/ha, postemergence, visual injury rating after approximately 10 d; read-out: Ryegrass, Italian plant response rating (0 to 100 scale, 0 no effect, 100 complete control)
Method in brief: as §1

[5] = test system: pigweed (Amaranthus retroflexus); test: Test A postemergence; settings: Amaranthus retroflexus, post-emergence, 240 h, 125 g ai/ha, postemergence, visual injury rating after approximately 10 d; read-out: Pigweed plant response rating (0 to 100 scale, 0 no effect, 100 complete control)
Method in brief: as §1

[6] = test system: wheat (Triticum aestivum); test: Test A postemergence; settings: Triticum aestivum, post-emergence, 240 h, 125 g ai/ha, postemergence, visual injury rating after approximately 10 d; read-out: Wheat plant response rating (0 to 100 scale, 0 no effect, 100 complete control)
Method in brief: as §1

corn (Zea mays) = test: Test A postemergence; settings: Zea mays, post-emergence, 240 h, 125 g ai/ha, postemergence, visual injury rating after approximately 10 d; read-out: Corn plant response rating (0 to 100 scale, 0 no effect, 100 complete control)
Method in brief: as §1

[7] = test system: ragweed (common ragweed, Ambrosia elatior); test: Test A postemergence; settings: Ambrosia artemisiifolia, post-emergence, 240 h, 125 g ai/ha, postemergence, visual injury rating after approximately 10 d; read-out: Ragweed plant response rating (0 to 100 scale, 0 no effect, 100 complete control)
Method in brief: as §1

[8] = test system: blackgrass (Alopecurus myosuroides); test: Test A postemergence; settings: Alopecurus myosuroides, post-emergence, 240 h, 125 g ai/ha, postemergence, visual injury rating after approximately 10 d; read-out: Blackgrass plant response rating (0 to 100 scale, 0 no effect, 100 complete control)
Method in brief: as §1

[9] = test system: barnyardgrass (Echinochloa crus-galli); test: Test A postemergence; settings: Echinochloa crus-galli, post-emergence, 240 h, 125 g ai/ha, postemergence, visual injury rating after approximately 10 d; read-out: Barnyardgrass plant response rating (0 to 100 scale, 0 no effect, 100 complete control)
Method in brief: as §1

Kochia (Kochia scoparia) [10] = test: Test A preemergence; settings: Bassia scoparia, pre-emergence, 240 h
Method in brief: as §1

[11] = test system: ryegrass, Italian (Italian ryegrass, Lolium multiflorum); test: Test A preemergence; settings: Lolium multiflorum, pre-emergence, 240 h
Method in brief: as §1

[12] = test system: pigweed (Amaranthus retroflexus); test: Test A preemergence; settings: Amaranthus retroflexus, pre-emergence, 240 h
[13] = test system: ragweed (common ragweed, Ambrosia elatior); test: Test A preemergence; settings: Ambrosia artemisiifolia, pre-emergence, 240 h
Method in brief: as §1

[14] = test system: barnyardgrass (Echinochloa crus-galli); test: Test A preemergence; settings: Echinochloa crus-galli, pre-emergence, 240 h
Method in brief: as §1

SMILES: COc1cccc(C2CN(C)C(=O)C2C(=O)Nc2cccc(F)c2F)c1 (centres unmarked) [Compound 886]
- pest or weed control at 125 g/ha [1]: 90%
- pest or weed control at 125 g/ha (Kochia (Kochia scoparia) [2]): 0%
- pest or weed control at 125 g/ha [3]: 0%
- pest or weed control at 125 g/ha [4]: 20%
- pest or weed control at 125 g/ha [5]: 0%
- plant injury at 125 g/ha [6]: 0%
- plant injury at 125 g/ha (corn (Zea mays)): 40%
- pest or weed control at 125 g/ha [7]: 0%
- pest or weed control at 125 g/ha [8]: 20%
- pest or weed control at 125 g/ha [9]: 90%
- pest or weed control at 125 g/ha (Kochia (Kochia scoparia) [10]; 125 g ai/ha, preemergence, 0 to 100 scale where 0 is no effect and 100 is complete control, read-out: Kochia plant response rating): 80%
- pest or weed control at 500 g/ha (Kochia (Kochia scoparia) [10]; 500 g ai/ha, Preemergence, visual injury vs untreated controls after approximately 10 d, read-out: Kochia plant response rating (0 to 100 scale where 0 is no effect and 100 is complete control)): 90%
- pest or weed control at 125 g/ha ([11]; 125 g ai/ha, preemergence, 0 to 100 scale where 0 is no effect and 100 is complete control, read-out: Ryegrass, Italian plant response rating): 0%
- pest or weed control at 500 g/ha ([11]; 500 g ai/ha, Preemergence, visual injury vs untreated controls after approximately 10 d, read-out: Ryegrass, Italian plant response rating (0 to 100 scale where 0 is no effect and 100 is complete control)): 60%
- pest or weed control at 125 g/ha ([12]; 125 g ai/ha, preemergence, 0 to 100 scale where 0 is no effect and 100 is complete control, read-out: Pigweed plant response rating): 0%
- pest or weed control at 500 g/ha ([12]; 500 g ai/ha, Preemergence, visual injury vs untreated controls after approximately 10 d, read-out: Pigweed plant response rating (0 to 100 scale where 0 is no effect and 100 is complete control)): 0%
- pest or weed control at 125 g/ha ([13]; 125 g ai/ha, preemergence, 0 to 100 scale where 0 is no effect and 100 is complete control, read-out: Ragweed plant response rating): 0%
- pest or weed control at 500 g/ha ([13]; 500 g ai/ha, Preemergence, visual injury vs untreated controls after approximately 10 d, read-out: Ragweed plant response rating (0 to 100 scale where 0 is no effect and 100 is complete control)): 50%
- pest or weed control at 125 g/ha ([14]; 125 g ai/ha, preemergence, 0 to 100 scale where 0 is no effect and 100 is complete control, read-out: Barnyardgrass plant response rating): 90%
- pest or weed control at 500 g/ha ([14]; 500 g ai/ha, Preemergence, visual injury vs untreated controls after approximately 10 d, read-out: Barnyardgrass plant response rating (0 to 100 scale where 0 is no effect and 100 is complete control)): 90%

Reference: patent US12077503B2, “Substituted cyclic amides and their use as herbicides” (FMC CORPORATION, priority 2015, dated 2024)
